# Experimental data from patent US20080267948A1, “Croos-B Structure Binding Compounds” (priority 2005, published 2008).
# “Also recorded” adds a separate entry of the source.
# How the values were obtained:
# Aβ = molecular target: T1, Aβ (Homo sapiens, UniProt P05067, E693Q); assay: Binding of Aβ from solution to immobilized small compounds; conditions: coat 100 μg/ml
# T1 construct: Lyophilized human amyloid-β(1-40) with E22Q mutation ‘Dutch type’; purchased Peptide facility, Dutch Cancer Institute, Amsterdam; host or cells: synthetic peptide
# Protocol: (§1) To test the ability of the twelve selected compounds (see Table 7) to bind to misfolded proteins, […] Greiner Microlon high binding plates, Nunc amino Immobilizer plates and Nunc Maxisorp plates. Compounds were coated in 100 mM NaHCO3 pH 9.6, 50 μl/well, 1 h at room temperature with agitation. As a control, wells were coated with buffer only. After blocking of the plates, wells were overlayed with solutions of 0.1/1/10 μg/ml Hb-AGE or 10/100 μg/ml Aβ, in binding buffer (PBS/0.1% Tween20). After washing, binding of Hb-AGE was assessed by overlaying wells with 1 μg/ml hybridoma antibody 4B5, which binds to glycations(^2), followed by RAMPO. Binding of Aβ was visualized using 500× diluted anti-Aβ antibodies (mouse antibody beta-amyloid Clone 6F/3D #M0872, lot 00003503, DAKOCytomation; β-amyloid (H-43) SC-9129, 200 μg/ml rabbit polyclonal IgG, Santa Cruz Biotechnology) and RAMPO/SWARPO in a 1:1 ratio. Finally, wells were overlayed with OPD/H2O2 solution, and H2SO4, before absorbance readings at 490 nm.
# tPA/plasminogen [1] = molecular target: T2, tPA/plasminogen (Homo sapiens, UniProt P00750); assay: tPA/plasminogen activation by OVA heated in the presence of compounds (substrate PNAPEP1751); assay type: biochemical; conditions: 25 μg/ml OVA, 25 μg/ml compound, […] DMSO
# T2 construct: purchased Boehringer Ingelheim Actilyse
# Protocol: Heated OVA, either in PBS/1% DMSO (positive control), or in the same buffer in the presence of 1 mg/ml of the compounds, was used 40-fold diluted in the assay. Negative control was buffer without OVA. […] In addition, it was assessed whether the compounds interfere with absorbance readings at 405 nm, with converted chromogenic substrate. […] The yellow solution is divided over wells of an ELISA plate. […] Signals are compared and related to the control.
# tPA/plasminogen [2] = molecular target: T2, tPA/plasminogen; assay: tPA/plasminogen activation by pre-formed misfolded OVA in the presence of compounds; assay type: biochemical; conditions: 80-fold or 160-fold diluted compound and misfolded OVA stocks of 1 mg/ml
# Protocol: […] Negative control was buffer without OVA. […] In addition, it was assessed whether the compounds interfere with absorbance readings at 405 nm, with converted chromogenic substrate. […] The yellow solution is divided over wells of an ELISA plate. […] Signals are compared and related to the control.
# heat-denatured ovalbumin = molecular target: T3, heat-denatured ovalbumin (Gallus gallus, UniProt P01012); assay: Thioflavin T fluorescence of ovalbumin and small compounds; set-up: species or system chicken; conditions: 1 mg/ml compound, 1 mg/ml OVA
# T3 construct: purchased Sigma A5503
# T3 sequence (P01012 1-386): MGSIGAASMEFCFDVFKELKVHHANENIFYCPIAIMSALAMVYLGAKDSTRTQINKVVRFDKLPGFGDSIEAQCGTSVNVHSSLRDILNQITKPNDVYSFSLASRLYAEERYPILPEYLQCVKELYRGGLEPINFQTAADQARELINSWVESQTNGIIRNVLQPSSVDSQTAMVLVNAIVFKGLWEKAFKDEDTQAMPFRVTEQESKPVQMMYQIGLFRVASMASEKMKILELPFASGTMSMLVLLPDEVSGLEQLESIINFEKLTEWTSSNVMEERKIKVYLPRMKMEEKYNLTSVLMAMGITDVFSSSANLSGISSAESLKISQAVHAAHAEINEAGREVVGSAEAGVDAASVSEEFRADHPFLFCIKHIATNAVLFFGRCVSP
# Protocol: To establish the enhancement of Thioflavin T fluorescence by ovalbumin preparations, 90 μl of 25 μM ThT-solution in 50 mM Glycine buffer (pH 9.0) was added to 10 μl sample in duplicate wells of black 96-wells plates. Heat-denatured ovalbumin at 1 mg/ml in PBS with no addition, DMSO at a final concentration of 1% v/v, or 1 mg/ml of the compounds listed in Table 7, was used. Compound stocks are 100 mg/ml in DMSO. In addition, ovalbumin at 1 mg/ml with the same additions was first heat denatured and subsequently used in the fluorescence assay. Heat denaturation was according to the protocol given above. Fluorescence of duplicates was measured on a Thermo Fluoroskan Ascent 2.5, at 435 nm excitation and 485 nm emission wavelengths.
# Hb-AGE [3] = molecular target: T4, Hb-AGE (Homo sapiens, UniProt P68871+P69905); assay: ELISA binding of tPA to immobilized Hb-AGE after pre-incubation with compounds; conditions: Hb-AGE first overlayed with compound (concentration series), then tPA
# T4 construct: purchased Sigma-Aldrich H7379
# Protocol: Compounds were now diluted 10× in PBS/0.1% Tween20 (500 μg/ml compound). […] With the selection, similar binding assays are performed with misfolded OVA and Aβ. Finally, concentration series of the selected compounds are used in the binding studies.
# Hb-AGE [4] = molecular target: T4, Hb-AGE; assay: Binding of Hb-AGE from solution to immobilized small compounds; conditions: coat 100 μg/ml
# Protocol: as §1
# ovalbumin = molecular target: T5, ovalbumin (Gallus gallus, UniProt P01012); assay: Transmission electron microscopy of ovalbumin heated in the presence of small compounds; set-up: species or system chicken; conditions: 1 mg/ml ovalbumin heated with 1 mg/ml compound
# T5 construct: purchased Sigma A5503
# T5 sequence (P01012 1-386): T3 sequence (P01012 1-386)
# Protocol: For TEM analyses grids were prepared according to standard procedures. Ovalbumin samples at 1 mg/ml were applied to 100-mesh copper grids with carbon coated Formvar (Merck, Germany), and subsequently washed with PBS and H2O. Grids were applied to droplets of 2% (m/v) methylcellulose with 0.4% (m/v) uranylacetate pH 4. After a 2-minutes incubation grids were dried on a filter. Images were recorded at 80 kV, at suitable magnifications on a JEM-1200EX electron microscope (JEOL, Japan).
# [5] = system: misfolded proteins (Hb-AGE, Aβ); assay: Binding of misfolded proteins from solution to immobilized small compounds (overall); conditions: compounds coated on ELISA plates, Hb-AGE or Aβ in solution
# Protocol: To test the ability of the twelve selected compounds (see Table 7) to bind to misfolded proteins, the compounds were immobilized at 10/100/1000 μg/ml in the wells of 96-wells Greiner Microlon high binding plates, Nunc amino Immobilizer plates and Nunc Maxisorp plates. Compounds were coated in 100 mM NaHCO3 pH 9.6, 50 μl/well, 1 h at room temperature with agitation. As a control, wells were coated with buffer only. After blocking of the plates, wells were overlayed with solutions of 0.1/1/10 μg/ml Hb-AGE or 10/100 μg/ml Aβ, in binding buffer (PBS/0.1% Tween20). After washing, binding of Hb-AGE was assessed by overlaying wells with 1 μg/ml hybridoma antibody 4B5, which binds to glycations(^2), followed by RAMPO. Binding of Aβ was visualized using 500× diluted anti-Aβ antibodies (mouse antibody beta-amyloid Clone 6F/3D #M0872, lot 00003503, DAKOCytomation; β-amyloid (H-43) SC-9129, 200 μg/ml rabbit polyclonal IgG, Santa Cruz Biotechnology) and RAMPO/SWARPO in a 1:1 ratio. Finally, wells were overlayed with OPD/H2O2 solution, and H2SO4, before absorbance readings at 490 nm.
# [6] = molecular target: T6, glycated haemoglobin (Hb-AGE) (Homo sapiens, UniProt P68871+P69905); assay: ELISA binding of IgIV to immobilized Hb-AGE and inhibition studies; conditions: 15 μg/ml IgIV, concentration series of competitor
# T6 construct: purchased Sigma-Aldrich H7379
# Protocol: Binding of IgIV was determined using an enzyme linked immunosorbent assay (ELISA) set-up. For this purpose 50 μl/well of potential ligands at indicated concentrations or coat buffer only for control and background measurement purposes, were coated overnight at 4° C., with motion, in 50 mM NaHCO3 pH 9.6. Glycated albumin and Hb (BSA-AGE and Hb-AGE), control BSA and control Hb were coated at 5 μg/ml. The BSA and Hb controls were prepared freshly by dissolving lyophilized proteins at 1 mg/ml in PBS upon resuspending by pipetting, followed by a 30′ period at the roller bank, at room temperature. The protein solutions were centrifuged for 10′ at 16,000*g and diluted in coat buffer. Coat controls were performed with anti-glycated protein antibody, anti-albumin antibody, anti-Hb antibody. The alkaline phosphatase-conjugated anti-human Ig antibodies were controlled by coating the IgIV's and overlaying them the secondary antibodies. After coating the plates were washed twice with 50 mM Tris-HCl pH 7.3, 150 mM NaCl, 0.1% v/v Tween20, and blocked with 175 μl/well Blocking reagent (Roche Diagnostics, Almere, The Netherlands; catalogue number 11112589001), for 1 h at room temperature, with motion. Plates were washed twice and incubated in triplicate with indicated antibodies dilution series, plasma dilution series or controls, including binding buffer only, in the absence or presence of putative inhibitors, in binding buffer; PBS/0.1% v/v Tween20, at 50 μl/well, for 1 h at room temperature, with constant motion. After four wash cycles, secondary antibodies were added to the wells, 50 μl/well, for 45′ at room temperature, with motion. RAMPO and SWARPO were used at 2000 times dilution, goat anti-human IgG antibodies were diluted 3000 times, goat anti-human IgM antibodies were diluted 1000 times. After 5 washes with wash buffer followed by two washes with PBS, binding of antibodies was assessed. […] After 5′ absorbance was read at 405 nm. […] After 5′ absorbance was read at 490 nm. […] Triplicates were averaged and standard deviations calculated. […]
# tPA = tPA (Homo sapiens, UniProt P00750); assay: tPA serine protease activity with OVA heated in the presence of compounds (substrate S-2765); assay type: biochemical; set-up: purchased Boehringer Ingelheim Actilyse; conditions: OVA heated with 1 mg/ml compound, 80-, 160- or 320-fold diluted, 100 nM tPA
# Protocol: For this purpose, the influence of the compounds on heat-denaturation of OVA was analyzed (see above: Thioflavin T fluorescence measurements). Heated OVA at 1 mg/ml in PBS in the presence or absence of 1 mg/ml of the twelve compounds listed in Table 7 in PBS/DMSO (final DMSO concentration 1%) was used 80-fold or 160-fold or 320-fold diluted (final heated OVA concentration and compound concentration was 12.5 or 6.3 or 3.1 μg/ml; final DMSO concentration was 0.013% and 0.006% and 0.003%).
# T2 sequence (P00750 36-562): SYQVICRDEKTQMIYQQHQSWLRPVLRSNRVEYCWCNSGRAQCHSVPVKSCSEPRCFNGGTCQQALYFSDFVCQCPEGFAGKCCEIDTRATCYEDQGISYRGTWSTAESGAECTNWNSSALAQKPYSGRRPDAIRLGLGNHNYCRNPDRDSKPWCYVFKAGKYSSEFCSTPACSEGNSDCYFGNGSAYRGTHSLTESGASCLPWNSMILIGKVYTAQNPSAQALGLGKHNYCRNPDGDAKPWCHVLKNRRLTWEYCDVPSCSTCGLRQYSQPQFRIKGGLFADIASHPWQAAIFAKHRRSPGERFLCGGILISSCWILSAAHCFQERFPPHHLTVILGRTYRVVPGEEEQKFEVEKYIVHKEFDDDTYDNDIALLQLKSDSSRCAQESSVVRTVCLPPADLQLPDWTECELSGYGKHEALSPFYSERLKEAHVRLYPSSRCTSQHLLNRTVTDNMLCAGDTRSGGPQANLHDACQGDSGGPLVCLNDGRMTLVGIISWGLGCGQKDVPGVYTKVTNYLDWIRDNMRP
# T4 sequence (P69905 2-142 limits assumed): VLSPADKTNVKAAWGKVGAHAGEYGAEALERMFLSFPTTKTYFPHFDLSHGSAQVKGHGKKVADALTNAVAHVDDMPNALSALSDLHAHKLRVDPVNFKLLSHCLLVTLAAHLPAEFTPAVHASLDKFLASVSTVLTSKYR
# T4 sequence (P68871 2-147 limits assumed): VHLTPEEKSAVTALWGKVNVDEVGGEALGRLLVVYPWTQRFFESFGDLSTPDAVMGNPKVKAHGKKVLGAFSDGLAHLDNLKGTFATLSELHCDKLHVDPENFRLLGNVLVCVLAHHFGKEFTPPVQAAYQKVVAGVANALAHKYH
# tPA, sequence (P00750 36-562): as the sequence (P00750 36-562) above
# T6 sequence (P69905 2-142 limits assumed): as the sequence (P69905 2-142 limits assumed) above
# T6 sequence (P68871 2-147 limits assumed): as the sequence (P68871 2-147 limits assumed) above
Compound,"Signal (a.u.) (Aβ; Nunc Maxisorp, Aβ 100 μg/ml)","Signal (a.u.) (Aβ; Nunc amino Immobilizer, Aβ 10 μg/ml)","Signal (a.u.) (Aβ; Nunc amino Immobilizer, Aβ 100 μg/ml)",influence on tPA/plasminogen activation by OVA pre-heated in the presence of compound (tPA/plasminogen [1]),influence on tPA/plasminogen activation by pre-formed misfolded OVA (tPA/plasminogen [2]),influence on Thioflavin T fluorescence with misfolded OVA (heat-denatured ovalbumin),influence on tPA binding to immobilized Hb-AGE (Hb-AGE [3]),"Signal (a.u.) (Hb-AGE [4]; Nunc Maxisorp, Hb-AGE 10 μg/ml)","Signal (a.u.) (Hb-AGE [4]; Nunc amino Immobilizer, Hb-AGE 1 μg/ml)",appearance of ovalbumin heated in the presence of compound on TEM image (ovalbumin),capture of misfolded protein from solution by immobilized compound [5],influence on binding of IgIV to immobilized Hb-AGE [6],influence on tPA protease activity of OVA heated in the presence of compound (tPA)
Cc1c(C(=O)O)c(O)cc2c1C(=O)c1c(O)c([C@H]3O[C@H](CO)[C@@H](O)[C@H](O)[C@H]3O)c(O)c(O)c1C2=O [compound 19],0.08,0.03,0.04,Inhibition of tPA/plasminogen activation by OVA pre-heated,Delayed tPA/plasminogen activation by misfolded OVA,Inhibition on Thioflavin T fluorescence with misfolded OVA,Stimulated tPA binding to immobilized misfolded protein (Hb-,0.16,0.42,"Background as in Control, but less aggregated. Also",Capture of misfolded protein from solution,–,–
Thioflavin S,–,–,–,–,–,–,–,–,–,–,–,enhance the binding of IgIV,–
Bucharaine [compound 8],–,–,–,–,potent inhibitors of misfolded OVA-triggered plasmin generation; also recorded: fully abolish plasmin activity,–,–,–,–,no large OVA aggregates are seen,–,–,induces further stimulation of tPA by OVA; also recorded: induce increased tPA activity when combined with ovalbumin before heat-denaturation
